How the values were obtained:
[1] = system: ERK1 and ERK2; assay: ERK1 and ERK2 immunecomplex kinase assay with MBP substrate, Jurkat cells and mouse thymocytes; assay type: cell-based, human; mouse
Protocol: (§1) Exponentially growing cells were stimulated for the indicated times and hypotonic detergent cellular extracts were prepared as described (Hibi, et al., Genes and Dev., supra, 1993). The solid-state phosphorylation assay for measuring JNK activity was performed by incubated extracts with GSTcJun(1-223)-GSH agarose beads as described (Hibi, et al., supra., 1993) and as in Example 2. ERK1 and 2 activity was assayed by an immunecomplex kinase assay using MBP as a substrate (Minden, et al., Nature, 1993).
JNK is a proline-directed protein kinase activated by extracellular stimuli (Hibi, et al., supra, 1993). In that respect, it resembles the ERK1 and 2 MAP kinases (Boulton, et al., Cell, 65:663-675, 1991). Since ERK1 and 2 appear to be involved in induction of c-fos (Gille, et al., Nature, 358:414-417, 1992; Marais, et al., Cell, 73:381-393, 1993) and could thereby participate in T cell activation, their regulation was examined. ERK1 and ERK2 activities were measured in both Jurkat and mouse thymocytes using an immunecomplex kinase assay and myelin basic protein (MBP) as a substrate. Recombinant, kinase-defective ERK1 was also used a substrate for assaying MEK, the protein kinase responsible for activation of ERK1 and 2 (Crews, et al., Science, 258:478-480, 1992).
WCE (5 μg) of Jurkat (FIG. 15, panel A) or mouse thymocytes (panel C) were incubated with 1 μg of kinase-defective ERK1 in kinase buffer containing γ-^32P-ATP for 20 minutes. The phosphorylated proteins were separated by SDS-PAGE and the band corresponding to the mutant ERK1 is indicated. WCE (20 μg) of Jurkat (panel B) or mouse thymocytes (panel C) that were treated as described above were immunoprecipitated with anti-ERK antibodies (a gift from Dr. M. Weber). The immune complexes were washed and incubated in kinase buffer containing γ-^32P-ATP and 2 μg MBP for 15 minutes at 30° C. The phosphorylated proteins were separated by SDS-PAGE. The band corresponding to phosphorylated MBP is indicated.

[2] = system: JNK; assay: Solid-state phosphorylation assay of JNK in FR3T3, CV-1 and PC12 cells; assay type: cell-based; conditions: for JNK activity, effect of A23187 or CsA treatment: FR3T3, CV-1 and PC12 cells, A23187 1 μg/ml, CsA 100 ng/ml
Protocol: We examined whether elevated intracellular Ca^++ affects JNK activation in other cells. […] Cultures of FR3T3, CV-1, PC12 and mouse thymocytes were incubated for 15 minutes in the presence of TPA (50 ng/ml, T), A23817 (1 μg/ml, A) and/or CsA (100 ng/ml), as indicated. WCE prepared from 2-4×10^5 cells for the established cell lines and 1.5×10^6 cells for primary thymocytes were incubated with GSTcJun(1-223)-GSH agarose beads. After washing, JNK activity was determined by solid-state phosphorylation assay as described above.

[3] = system: JNK; assay: Solid-state phosphorylation assay of JNK on GSTcJun(1-223)-GSH agarose beads, Jurkat cells; assay type: cell-based, human; conditions: for JNK activation together with suboptimal dose of TPA: A23187, anti-CD3 or anti-CD28 plus suboptimal TPA; for JNK activation, solid-state assay, agent alone: TPA 50 ng/ml or A23187 1 μg/ml, 15 minutes
Protocol: as §1
JNK can be retained on GSTcJun-glutathione (GSH) agarose affinity resin and its kinase activity measured by phosphorylation of GSTcJun. WCE (50 μg) of Jurkat cells treated as described above were incubated with 5 μl of GSH agarose beads coated with 10 μg GST-cJun (1-223) for 12 hours at 4° C. After extensive washing, the beads were incubated in kinase buffer containing γ-^32P-ATP for 20 minutes at 30° C., after which the proteins were dissociated by incubation in SDS sample buffer and separated by SDS-PAGE (FIG. 13B). The 49 kD band corresponds to GST-cJun (1-223). The faster migrating bands are degradation products (Hibi, et al., supra, 1993).
WCE (50 μg) of Jurkat cells treated as described above were incubated with GSTcJun(1-223)-GSH agarose beads and assayed for JNK activity using the solid-state kinase assay. The same WCE (20 μg) were immunoprecipitated with anti-ERK2 antibodies and assayed for MBP-kinase activity.
WCE (50 μg) of Jurkat cells treated as described in Panel A with various stimuli alone or their combinations were incubated with GSTcJun(1-223)-GSH agarose beads and assayed for JNK activity using solid-state kinase assay. The same samples (20 μg) were also assayed for MBP-kinase activity as described in FIG. 16B.

[4] = system: AP-1 responsive human collagenase promoter (-73Col-LUC); assay: AP-1 transcriptional activity, -73Col-LUC luciferase reporter in Jurkat cells; assay type: cell-based; conditions: for -73Col-LUC luciferase activity, agent administered alone: TPA 50 ng/ml or A23187 1 μg/ml, 9 hours; for -73Col-LUC luciferase activity, two costimuli together: TPA+A23187 or anti-CD3+anti-CD28
Protocol: T Ag Jurkat cells, a derivative of the human Jurkat T-cell line stably transfected with the SV40 large T antigen (a gift from Dr. G. Crabtree) were grown to 10^6/ml, then resuspended at 2×10^7/ml in fresh complete medium. 10^7 cells (0.5 ml) were mixed with reporter plasmids (5 μg, −79 jun-LUC; 10 μg, −73/+63 Col-LUC or −60/+63 Col-LUC; 5 μg IL2-LUC) at room temperature for 10 minutes, then electroporated at 250 V, 960 uF in a 0.4 cm cuvette using a Bio-Rad GenePulser. After electroporation, cells were immediately put on ice for 10 minutes, then resuspended in 10 ml complete medium for 24 hours before stimulation. 0.5 μg of pSRaIIc-Jun were used to transfect 10^7 Jurkat cells. Luciferase activity was determined as described (Deng and Karin, supra., 1993).
The effects of the different stimuli on AP-1 transcriptional activity in Jurkat cells were examined using a truncated, AP-1 responsive, human collagenase promoter (Angel, et al., Cell, 49:729-739, 1987) fused to the luciferase (LUC) reporter gene. Jurkat cells were transfected with 10 μg of either −73Col-LUC or −60Col-LUC reporter plasmids. 24 hours after transfection, the cells were aliquoted into 24 well plates and incubated for 9 hours with 50 ng/ml TPA, 1 μg/ml A23187 or 100 ng/ml CsA, either alone or in combinations, as indicated. The cells were harvested and luciferase activity was determined. The results shown are averages of three experiments done in triplicates.

Compound	ERK activity, effect of A23187 or CsA [1]	JNK activity, effect of A23187 or CsA treatment [2]	JNK activation, solid-state assay, CsA added to TPA+A23187 ([3]; CsA 100 ng/ml)	JNK activation by suboptimal TPA+A23187, effect of CsA ([3]; Jurkat)	JNK activation by anti-CD3+anti-CD28, effect of CsA ([3]; Jurkat, CsA 100 ng/ml)	effect on induction of -73Col-LUC ([4]; CsA 100 ng/ml with TPA+A23187, 9 hours)	JNK activation, solid-state assay, costimulation with TPA ([3]; A23187 1 μg/ml plus TPA 50 ng/ml)	JNK activation together with suboptimal dose of TPA ([3]; Jurkat)	JNK activation, solid-state assay, agent alone ([3]; Jurkat)	-73Col-LUC luciferase activity, agent administered alone [4]	-73Col-LUC luciferase activity, two costimuli together [4]	ERK activity, TPA treatment ([1]; Jurkat cells or mouse thymocytes)	JNK activity, TPA alone ([2]; CV1 and FR3T3 cells, TPA 50 ng/ml, 15 minutes)	JNK activation, suboptimal dose of TPA by itself ([3]; Jurkat)	JNK activation, combined treatment with A23187 ([3]; Jurkat, anti-CD3 or anti-CD28 plus A23187)
cyclosporin A [CsA]	had no effect on either activity	In none of these cells was JNK activity affected	inhibited	completely inhibited	partially attenuated this effect	inhibited									
CNc1ccc2oc(C[C@H]3O[C@@]4(CC[C@H]3C)O[C@H]([C@H](C)C(=O)c3ccc[nH]3)[C@H](C)C[C@H]4C)nc2c1C(=O)O [A23187]	had no effect on either activity	In none of these cells was JNK activity affected					strongly potentiated	strong synergistic activation of JNK	had no effect	marginal effects	synergistic activation				
CCCCCCCCCCCCCC(=O)O[C@@H]1[C@@H](C)[C@@]2(O)[C@@H](C=C(CO)C[C@]3(O)C(=O)C(C)=C[C@@H]23)[C@H]2C(C)(C)[C@]12OC(C)=O [TPA]									activation of JNK	marginal effects	synergistic activation	fully stimulated	weakly stimulated	does not lead to JNK activation	
anti-CD3: anti-CD3 monoclonal antibody OKT3								strong synergistic activation of JNK			synergistic activation				efficiently activated

From patent publication US6706509B2, “Oncoprotein protein kinase” (The Regents of the University of California, priority 1993, dated 2004)
